Reference: US20240217978A1 (CHONG KUN DANG PHARMACEUTICAL CORP., priority 2021, published 2024)

target: human adenosine A2a receptor (Homo sapiens (Human), UniProt P29274); test: A2a receptor binding affinity, [3H]-NECA radioligand binding test; conditions: [3H]-NECA 37 nM; membrane from HEK-293 cells transfected with human adenosine A2a receptor
Protocol: The binding affinity of the compounds according to Examples of the present invention to the human adenosine A2a receptor was evaluated by entrusting SB drug discovery in the UK.
A radioligand binding test was conducted by using [3H]-NECA (5′-N-[adenine-2,8-3H]-ethylcarboxamidoadenosine) and an adenosine A2a membrane. As the adenosine A2a membrane, a cell membrane prepared from HEK-293 cells transfected with human adenosine A2a receptor was used. The membrane used for the test was prepared by incubating with a radioligand until equilibrium was reached. In order to separate the radioligand-bound membrane, the unbound radioligand was separated by using Packard filtermate Harverster and glass filter plates.
10 μL of test compound dissolved in binding buffer (50 mM Tris, 10 mM MgCl2, 1 mM EDTA pH 7.4) and 20 μL of [3H]-NECA (final concentration of 37 nM) or reference inhibitor was mixed with 20 μL of A2a membrane in an unbound 96-well plate and incubated at room temperature for one hour. Prior to filtration, a 96-well harvest filter plate was coated with 0.33% polyethylenimine for 30 minutes and then washed with assay buffer. The binding reaction was transferred to the filter plate and washed three times with wash buffer. The dish was then dried, scintillant was added, and radioactivity was counted in a scintillation counter (Topcount NXT, Packard).
The binding affinity IC50 (μM) for the human adenosine A2a receptor obtained according to the above experimental method is shown in the table below.

human adenosine A2a receptor, sequence (P29274 whole entry): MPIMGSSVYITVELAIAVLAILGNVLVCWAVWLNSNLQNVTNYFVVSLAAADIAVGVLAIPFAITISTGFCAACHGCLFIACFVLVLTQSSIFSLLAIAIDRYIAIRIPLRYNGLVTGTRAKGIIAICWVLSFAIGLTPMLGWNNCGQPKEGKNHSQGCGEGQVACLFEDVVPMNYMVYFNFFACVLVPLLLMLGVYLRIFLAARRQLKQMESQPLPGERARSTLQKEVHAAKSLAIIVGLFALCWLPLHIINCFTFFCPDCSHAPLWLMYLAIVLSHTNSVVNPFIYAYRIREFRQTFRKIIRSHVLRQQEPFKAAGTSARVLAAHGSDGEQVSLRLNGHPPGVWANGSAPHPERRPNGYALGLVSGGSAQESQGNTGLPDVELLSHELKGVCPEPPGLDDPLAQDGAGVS

Row | IC50 [nM] | SMILES
1 | 4 | CC(C)(F)CN1CCN(C(=O)[C@@H]2CCCN2c2nc(N)n3nc(-c4ccco4)nc3n2)CC1 [Example 26, (S)-(1-(7-amino-2-(furan-2-yl)-[1,2,4]triazolo[1,5-a][1,3,5]triazin-5-yl)pyrrolidin-2-yl)(4-(2-fluoro-2-methylpropyl)piperazin-1-yl)methanone]
2 | 7 | Nc1nc(N2CCC[C@H]2C(=O)N2CCN(Cc3ccccc3)CC2)nc2nc(-c3ccco3)nn12 [Example 27, (S)-(1-(7-amino-2-(furan-2-yl)-[1,2,4]triazolo[1,5-a][1,3,5]triazin-5-yl)pyrrolidin-2-yl)(4-benzylpiperazin-1-yl)methanone]
3 | 8 | Nc1nc(N2CCCC[C@H]2C(=O)N2CCN(Cc3ccc(F)cc3F)CC2)nc2nc(-c3ccco3)nn12 [Example 29, (S)-(1-(7-amino-2-(furan-2-yl)-[1,2,4]triazolo[1,5-a][1,3,5]triazin-5-yl)piperidin-2-yl)(4-(2,4-difluorobenzyl)piperazin-1-yl)methanone]
4 | 11 | CCC(O)(CC)CN1CCN(C(=O)[C@@H]2CCCN2c2nc(N)n3nc(-c4ccco4)nc3n2)CC1 [Example 42, (S)-(1-(7-amino-2-(furan-2-yl)-[1,2,4]triazolo[1,5-a][1,3,5]triazin-5-yl)pyrrolidin-2-yl)(4-(2-ethyl-2-hydroxybutyl)piperazin-1-yl)methanone]
5 | 19 | Nc1nc(N2CCC[C@H]2C(=O)N2CCN(Cc3ccc(F)cc3)CC2)nc2nc(-c3ccco3)nn12 [Example 45, (S)-(1-(7-amino-2-(furan-2-yl)-[1,2,4]triazolo[1,5-a][1,3,5]triazin-5-yl)pyrrolidin-2-yl)(4-(4-fluorobenzyl)piperazin-1-yl)methanone]
6 | 6 | Nc1nc(N2CCC[C@H]2C(=O)N2CCN(C(=O)c3ccccc3)CC2)nc2nc(-c3ccco3)nn12 [Example 46]
7 | 8 | CCCCN1CCN(C(=O)[C@@H]2CCCN2c2nc(N)n3nc(-c4ccco4)nc3n2)CC1 [Example 47, (S)-(1-(7-amino-2-(furan-2-yl)-[1,2,4]triazolo[1,5-a][1,3,5]triazin-5-yl)pyrrolidin-2-yl)(4-butylpiperazin-1-yl) methanone]
8 | 13 | Nc1nc(N2CCC[C@H]2C(=O)N2CCN(CC(F)(F)F)CC2)nc2nc(-c3ccco3)nn12 [Example 48, (S)-(1-(7-amino-2-(furan-2-yl)-[1,2,4]triazolo[1,5-a][1,3,5]triazin-5-yl)pyrrolidin-2-yl)(4-(2,2,2-trifluoroethyl)piperazin-1-yl)methanone]
9 | 6 | Nc1nc(N2CCC[C@H]2C(=O)N2CCN(C3CCCCC3)CC2)nc2nc(-c3ccco3)nn12 [Example 54]
10 | 16 | Nc1nc(N2CCC[C@H]2C(=O)N2CCC(F)(F)CC2)nc2nc(-c3ccco3)nn12 [Example 55, (S)-(1-(7-amino-2-(furan-2-yl)-[1,2,4]triazolo[1,5-a][1,3,5]triazin-5-yl)pyrrolidin-2-yl)(4,4-difluoropiperidin-1-yl)methanone]

Continued, compound first:

Row | SMILES | IC50 [nM]
11 | COc1cccc(CN2CCN(C(=O)[C@H](C)Nc3nc(N)n4nc(-c5ccco5)nc4n3)CC2)c1 [Example 24, (S)-2-((7-amino-2-(furan-2-yl)-[1,2,4]triazolo[1,5-a][1,3,5]triazin-5-yl)amino)-1-(4-(3-methoxybenzyl)piperazin-1-yl)propan-1-one] | 33
12 | C[C@H](Nc1nc(N)n2nc(-c3ccco3)nc2n1)C(=O)N1CCN(CC(F)(F)F)CC1 [Example 25, (S)-2-((7-amino-2-(furan-2-yl)-[1,2,4]triazolo[1,5-a][1,3,5]triazin-5-yl)amino)-1-(4-(2,2,2-trifluoroethyl)piperazin-1-yl)propan-1-one] | 10
13 | CC(C)(F)CN1CCN(C(=O)[C@H](Cc2ccccc2)Nc2nc(N)n3nc(-c4ccco4)nc3n2)CC1 [Example 28, (S)-2-((7-amino-2-(furan-2-yl)-[1,2,4]triazolo[1,5-a][1,3,5]triazin-5-yl)amino)-1-(4-(2-fluoro-2-methylpropyl)piperazin-1-yl)-3-phenylpropan-1-one] | 8
14 | C[C@H](Nc1nc(N)n2nc(-c3ccco3)nc2n1)C(=O)N1CC2(CCN(Cc3ccc(F)cc3F)CC2)C1 [Example 30, (S)-2-((7-amino-2-(furan-2-yl)-[1,2,4]triazolo[1,5-a][1,3,5]triazin-5-yl)amino)-1-(7-(2,4-difluorobenzyl)-2,7-diazaspiro[3.5]nonan-2-yl)propan-1-one] | 1
15 | C[C@H](Nc1nc(N)n2nc(-c3ccco3)nc2n1)C(=O)N1CCC2(CC1)CN(Cc1ccc(F)cc1F)C2 [Example 31, (S)-2-((7-amino-2-(furan-2-yl)-[1,2,4]triazolo[1,5-a][1,3,5]triazin-5-yl)amino)-1-(2-(2,4-difluorobenzyl)-2,7-diazaspiro[3.5]nonan-7-yl)propan-1-one] | 1
16 | C[C@H](Nc1nc(N)n2nc(-c3ccco3)nc2n1)C(=O)N1C[C@@H]2C[C@H]1CN2Cc1ccc(F)cc1F [Example 32, (S)-2-((7-amino-2-(furan-2-yl)-[1,2,4]triazolo[1,5-a][1,3,5]triazin-5-yl)amino)-1-((1S, 4S)-5-(2,4-difluorobenzyl)-2,5-diazabicyclo[2.2.1]heptan-2-yl)propan-1-one] | 0.5
17 | Nc1nc(N2C[C@H](O)C[C@H]2C(=O)N2CCN(c3ccc(F)cc3F)CC2)nc2nc(-c3ccco3)nn12 [Example 37] | 12
18 | Cc1ccc(-c2nc3nc(N4CCC[C@H]4C(=O)N4CCN(Cc5ccc(F)cc5F)CC4)nc(N)n3n2)o1 [Example 40, (S)-(1-(7-amino-2-(5-methylfuran-2-yl)-[1,2,4]triazolo[1,5-a][1,3,5]triazin-5-yl)pyrrolidin-2-yl)(4-(2,4-difluorobenzyl)piperazin-1-yl)methanone] | 4
19 | Nc1nc(N2CCC[C@H]2C(=O)N2CCN(Cc3ccc(F)cc3F)CC2)nc2oc(-c3ccco3)nc12 [Example 41, (S)-(1-(7-amino-2-(furan-2-yl)oxazolo[5,4-d]pyrimidin-5-yl)pyrrolidin-2-yl)(4-(2,4-difluorobenzyl)piperazin-1-yl)methanone] | 13
20 | CCC(F)(CC)CN1CCN(C(=O)[C@@H]2CCCN2c2nc(N)n3nc(-c4ccco4)nc3n2)CC1 [Example 43, (S)-(1-(7-amino-2-(furan-2-yl)-[1,2,4]triazolo[1,5-a][1,3,5]triazin-5-yl)pyrrolidin-2-yl)(4-(2-ethyl-2-fluorobutyl)piperazin-1-yl)methanone] | 11
21 | Nc1nc(N2CCC[C@H]2C(=O)N2C[C@@H]3C[C@H]2CN3Cc2ccc(F)cc2F)nc2nc(-c3ccco3)nn12 [Example 44, ((S)-1-(7-amino-2-(furan-2-yl)-[1,2,4]triazolo[1,5-a][1,3,5]triazin-5-yl)pyrrolidin-2-yl)((1S,4S)-5-(2,4-difluorobenzyl)-2,5-diazabicyclo[2.2.1]heptan-2-yl)methanone] | 10
22 | CC1CN(C(=O)[C@@H]2CCCN2c2nc(N)n3nc(-c4ccco4)nc3n2)CC(C)N1Cc1ccc(F)cc1F (stereo partly drawn) [Example 49, ((S)-1-(7-amino-2-(furan-2-yl)-[1,2,4]triazolo[1,5-a][1,3,5]triazin-5-yl)pyrrolidin-2-yl)(4-(2,4-difluorobenzyl)-3,5-dimethylpiperazin-1-yl)methanone] | 3
23 | Nc1nc(N2CCC[C@H]2C(=O)N2CC3CCC(C2)N3Cc2ccc(F)cc2F)nc2nc(-c3ccco3)nn12 [Example 50, ((S)-1-(7-amino-2-(furan-2-yl)-[1,2,4]triazolo[1,5-a][1,3,5]triazin-5-yl)pyrrolidin-2-yl)(8-(2,4-difluorobenzyl)-3,8-diazabicyclo[3.2.1]octan-3-yl)methanone] | 9
24 | C[C@@H]1CN(Cc2ccc(F)cc2F)CCN1C(=O)[C@@H]1CCCN1c1nc(N)n2nc(-c3ccco3)nc2n1 [Example 51, ((S)-1-(7-amino-2-(furan-2-yl)-[1,2,4]triazolo[1,5-a][1,3,5]triazin-5-yl)pyrrolidin-2-yl)((R)-4-(2,4-difluorobenzyl)-2-methylpiperazin-1-yl)methanone] | 13
25 | Nc1nc(N2CCC[C@H]2C(=O)N2CCC3(CC2)CN(Cc2ccc(F)cc2F)C3)nc2nc(-c3ccco3)nn12 [Example 52, (S)-(1-(7-amino-2-(furan-2-yl)-[1,2,4]triazolo[1,5-a][1,3,5]triazin-5-yl)pyrrolidin-2-yl)(2-(2,4-difluorobenzyl)-2,7-diazaspiro[3.5]nonan-7-yl)methanone] | 16
26 | Nc1nc(N2CCC[C@H]2C(=O)N2CCN(CCN3CCOCC3)CC2)nc2nc(-c3ccco3)nn12 [Example 53, 4-(2-(4-((7-amino-2-(furan-2-yl)-[1,2,4]triazolo[1,5-a][1,3,5]triazine-5-yl)-L-prolyl)piperazin-1-yl)ethyl)morpholine] | 8
27 | Nc1nc(N2CCC[C@H]2C(=O)N2CCN(C3CCC(F)(F)CC3)CC2)nc2nc(-c3ccco3)nn12 [Example 56, (S)-(1-(7-amino-2-(furan-2-yl)-[1,2,4]triazolo[1,5-a][1,3,5]triazin-5-yl)pyrrolidin-2-yl)(4-(4,4-difluorocyclohexyl)piperazin-1-yl)methanone] | 8
28 | CC(C)[C@H](Nc1nc(N)n2nc(-c3ccco3)nc2n1)C(=O)N1CCN(Cc2ccc(F)cc2F)CC1 [Example 57, (S)-2-((7-amino-2-(furan-2-yl)-[1,2,4]triazolo[1,5-a][1,3,5]triazin-5-yl)amino)-1-(4-(2,4-difluorobenzyl)piperazin-1-yl)-3-methylbutan-1-one] | 7
